Consider 64 compounds from PubChem BioAssay AID463199 (Broad Institute, 2010).

SMILES strings stand for the structures. The source made the active and inactive calls.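 The calls were made as follows: active = AC50, the dose giving half-maximal effect, exceeds a fixed cutoff for a compound that rescues yeast growth under heat; inactive = the rest, inconclusive results apart.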

The test relates to S. cerevisiae Burl-1 ts mutant growth, BacTiter-Glo, 38.5C 24 h. Description: growth induction of Burl-1 ts yeast mutant, dose response, counter-screen for SUMOylation pathway inhibitor project, whole organism, S. cerevisiae, luminescence (AID 463199).

Take `CN(c1ccccc1)S(=O)(=O)c1ccc(C(=O)NCC2CCCO2)cc1` (centres undefined): the AC50 is > 21 µM (inactive).
The same measure for `CS(=O)(=O)c1ccc(Cl)c(NC(=O)c2ccc3ccccc3c2)c1`: > 42 µM (inactive); for `CCOC(=O)N1CCN(C(=O)c2ccc3ccccc3c2)CC1`: > 42 µM (inactive).
On to `Cc1ccccc1NC(=O)COC(=O)C1C2CC3OC(=O)C1C3C2` (centres undefined), for which the AC50 was > 42 µM (inactive).
In the case of `Cc1cc(S(=O)(=O)N2CCCCC2CCNC(=O)C(=O)NCC2CCCO2)ccc1F` (centres undefined) it was > 42 µM (inactive).
The same measure for `COc1ccc(Cn2nnnc2CN2CCN(c3ccc(OC)cc3)CC2)cc1`: > 42 µM (inactive); for `CCCCOc1ccc(CSC(=N)N)cc1Cl`: > 42 µM (inactive).
For `O=C(NC(=S)NNC(=O)c1ccccc1O)c1cccc([N+](=O)[O-])c1`, the AC50 is > 42 µM (inactive).
The same measure for `N#Cc1cccc(NC(=O)CSc2n[nH]c(=O)[nH]c2=O)c1`: > 42 µM (inactive).
For the compound `CN(C)c1oc(-c2ccccc2Cl)nc1S(=O)(=O)c1ccccc1`, the AC50 was > 42 µM (inactive).
In the case of `Cc1cc(C)cc(N(CC(=O)Nc2cccc(C)n2)S(=O)(=O)c2c(C)noc2C)c1` it was > 42 µM (inactive); in that of `CC1CN(CCCOc2ccc([N+](=O)[O-])cc2)CC(C)O1` (centres undefined), > 42 µM (inactive); in that of `CC1(C)NC(=O)N(CC(=O)O)C1=O`, > 42 µM (inactive).
The same measure for `COc1ccccc1/C=C/C(=O)c1c2c(c(C)[nH]c1=O)CCCC2`: > 42 µM (inactive); for `CN(C)CCCN(Cc1ccccc1)C(=S)Nc1ccc(F)c(Cl)c1`: > 42 µM (inactive); for `CCN(CC)C(=O)C1CCCN(c2ccc([N+](=O)[O-])cc2/C=N/NC(=O)c2cccc(Br)c2)C1` (centres undefined): > 42 µM (inactive).
With `Cc1ccc(SCC(=O)O/N=C(\N)c2cccc([N+](=O)[O-])c2)cc1`, the AC50 was > 42 µM (inactive).
The same measure for `Cc1nn(Cc2ccc(C(=O)Nc3ccccc3C(F)(F)F)o2)c(C)c1Br`: > 42 µM (inactive).
In the case of `CCc1cc2c(=O)c(-c3nc4ccccc4n3C)c(C)oc2c(CN2CCOCC2)c1O` it was 22.7 µM; in that of `CCCNC(=O)Cn1nc(C)n2c(cc3cc(F)ccc32)c1=O`, > 42 µM (inactive); in that of `COc1ccc(-c2oc3ccc(-c4cc(OC)c(OC)c(OC)c4)cc3c2C(=O)c2ccc(OC)nc2)cc1`, > 42 µM (inactive).
For the compound `COC(=O)c1ccccc1NC(=O)CSc1nnnn1CC(=O)O`, the AC50 was > 42 µM (inactive).
In the case of `Cc1ccc(-c2nnc(SCC#N)n2N)cc1` it was > 42 µM (inactive); in that of `COc1nc(OC)nc(N2CCC(C(=O)NC3CCCCCC3)CC2)n1`, > 42 µM (inactive).
In the case of `O=C(Nc1ccc(S(=O)(=O)NC2=NCCCCC2)cc1)c1ccc(C(F)(F)F)cc1` it was > 42 µM (inactive); in that of `O=c1cc(-c2ccccc2)nc(N2CCN(Cc3ccccc3)CC2)[nH]1`, > 42 µM (inactive); in that of `COc1ccccc1NC(=S)N(Cc1ccco1)Cc1cc2cccc(C)c2[nH]c1=O`, > 42 µM (inactive).
The same measure for `NNc1nc2sc3c(c2c(=O)n1-c1ccccc1)CCCC3`: > 42 µM (inactive); for `O=c1cnc2ccccc2n1Cc1ccccc1C(F)(F)F`: > 42 µM (inactive); for `O=C(COc1ccccc1Cl)c1ccc[nH]1`: > 42 µM (inactive).
As for `O=C(CCC(F)(F)F)N1CCCC(CO)(CCc2ccccc2)C1` (centres undefined), the AC50 was > 42 µM (inactive).
The same measure for `Cc1ccc(C(=O)c2cc([N+](=O)[O-])ccc2N2CCCCC2)cc1C`: > 42 µM (inactive).
Turning to `CCOc1cc(/C=N/NC(=O)C(=O)N/N=C/c2ccc(O)c(OCC)c2)ccc1O`, the AC50 was > 42 µM (inactive).
In the case of `Cc1ccc(NC(=O)Cn2nc(C)c3ccccc3c2=O)cc1` it was > 42 µM (inactive).
In the case of `CC(C)CC(c1nnnn1C1CCCCC1)N1CCN(C(=O)c2ccco2)CC1` (centres undefined) it was > 42 µM (inactive); in that of `Cc1cc(C)c(S(=O)(=O)NCC(c2cccnc2)N2CCN(Cc3ccccc3)CC2)c(C)c1` (centres undefined), > 42 µM (inactive).
In the case of `CCCCNC(=O)c1ccccc1NC(=O)C1=C(C)OCCS1` it was 11.3 µM; in that of `COc1ccc(NC(=O)c2ccc(-n3cncn3)c([N+](=O)[O-])c2)cc1`, > 21 µM (inactive); in that of `COc1cc([N+](=O)[O-])cc(/C=N/NC(=O)c2cc(C)nc3ccccc23)c1O`, > 42 µM (inactive).
As to `O=C(NCCCn1ccnc1)c1ccc(Cl)cc1`, the AC50 is > 42 µM (inactive).
The same measure for `CCOC(=O)c1cnc2c(C)c(Cl)ccc2c1N1CCOCC1`: > 42 µM (inactive); for `CCS(=O)c1ccccc1C(=O)O` (centres undefined): > 42 µM (inactive).
In the case of `Cc1cccc(N=C2C(=O)Nc3c(Cl)cccc32)c1` it was > 42 µM (inactive); in that of `CCCC(=O)NC(C)c1nc2ccccc2[nH]1` (centres undefined), > 42 µM (inactive); in that of `COc1ccccc1CC(=O)N1CCOCC1`, > 42 µM (inactive).
The same measure for `COc1ccc(-c2cc(C(=O)Nc3cc(C)ccc3O)no2)cc1`: > 42 µM (inactive).
Regarding `CCc1noc(C)c1C(=O)Nc1nc(-c2ccc(F)cc2)c(C)s1`, the AC50 is > 42 µM (inactive).
The same measure for `Cc1cccc(N2CCN(CCCNC(=O)c3ccc(NC(=O)C4=CSCCO4)cc3)CC2C)c1` (centres undefined): > 42 µM (inactive); for `Cn1c(SCC(=O)N/N=C/c2ccc([N+](=O)[O-])s2)nnc1-c1ccc(Cl)cc1`: > 42 µM (inactive).
The same measure for `COc1ccc2nc(NC(=O)c3cc(S(=O)(=O)N4CCOCC4)ccc3C)sc2c1`: > 42 µM (inactive).
As for `COc1cccc(OC)c1OCC(O)CN1CCN(c2ccccc2)CC1` (centres undefined), the AC50 is > 42 µM (inactive).
The same measure for `CC(C)c1nc2n[nH]c(N)c2c2c1CCC2`: > 42 µM (inactive); for `COc1ccc(/C=C(\C#N)C(=O)c2cccn2C)cc1`: > 42 µM (inactive); for `Cc1cc(C)n(-c2ccc(C(=O)C(C#N)c3nc4ccccc4n3C)cc2)n1` (centres undefined): > 42 µM (inactive).
Turning to `CCCCC(=O)Nc1nnc(/C=C/c2ccc(OC)cc2)s1`, the AC50 is > 42 µM (inactive).
As to `NC(=O)C1CCN(C2CC(=O)N(c3ccc(F)c(Cl)c3)C2=O)CC1` (centres undefined), the AC50 was > 42 µM (inactive).
In the case of `COc1ccccc1N1CCN(CCN2C(=O)C3CCCCN3C2=O)CC1` (centres undefined) it was > 42 µM (inactive); in that of `COc1ccc([N+](=O)[O-])c2c(=O)ccoc12`, > 42 µM (inactive).
In the case of `Cc1cc(C)cc(NC(=O)CS(=O)(=O)c2ccccc2)c1` it was > 42 µM (inactive); in that of `CN1C(=O)c2cccc3c(Cl)ccc(c23)C1=O`, > 42 µM (inactive).
In the case of `Cc1nn(C)c(Cl)c1CN1CCN(CCC(C)C)C(CCO)C1` (centres undefined) it was > 42 µM (inactive).
For `CCOC(=O)c1nc(Nc2ccccc2CC)c2ccccc2n1`, the AC50 is > 42 µM (inactive).
In the case of `N#CCC(=O)N/N=C/c1ccc(OS(=O)(=O)c2ccccc2)cc1` it was > 42 µM (inactive); in that of `Cc1ccccc1-c1nc2ccc(Cl)cc2c(=O)n1O`, > 42 µM (inactive).
